Reference: US11236105B2, “Bicyclic compounds and methods of use” (BioTheryX, Inc., priority 2017, dated 2022)

Test system: TNF-α
Assay: Cell-Based TNFα Inhibition Assay (PBMCs induced with LPS, Meso Scale)
Conditions: PBMC, PBMCs pretreated 1 hr, induced with LPS 100 ng/mL 18-24 hrs, supernatant TNF-α; for inhibition at 0.1 µM: 0.1 μM compound; for inhibition at 1 µM: 1 μM compound
Experimental: Cell-Based TNFα Inhibition Assay
PBMCs induced with LPS (lipopolysaccharide): Frozen […] blood mononuclear cells (PBMCs) are purchased from AllCells. Cells are quick thawed, washed once with Roswell Park Memorial Institute medium (RPMI)-1640/10% FBS/1% Penicillin/1% Streptomycin and plated in 96 well plates at 200,000 cells per well. Cells are pretreated with DMSO only or the indicated compounds for 1 hr and then induced with […] for 18-24 hrs. The supernatant is analyzed for TNF-α using Meso Scale assay according to manufacturer's protocol. The negative control wells are treated with DMSO. Compound activity is measured as a percentage of the DMSO control.

Row | SMILES | inhibition at 0.1 µM | inhibition at 1 µM
1 | CCOc1cc([C@@H](CS(C)(=O)=O)N2C(=O)c3csc(NC(C)=O)c3C2=O)ccc1OC [Compound 1, (S)—N-(5-(1-(3-ethoxy-4-methoxyphenyl)-2-(methylsulfonyl)ethyl)-4,6-dioxo-5,6-dihydro-4H-thieno[3,4-c]pyrrol-1-yl)acetamide] | 40 to 60% | > 60%
2 | CCOc1cc([C@@H](CS(C)(=O)=O)N2C(=O)c3csc(NC(=O)C(C)(C)C)c3C2=O)ccc1OC [Compound 2, (S)—N-(5-(1-(3-ethoxy-4-methoxyphenyl)-2-(methylsulfonyl)ethyl)-4,6-dioxo-5,6-dihydro-4H-thieno[3,4-c]pyrrol-1-yl)pivalamide] | < 20% | > 60%
3 | CCOc1cc([C@@H](CS(C)(=O)=O)N2C(=O)c3csc(NC(=O)COC)c3C2=O)ccc1OC [Compound 3, (S)—N-(5-(1-(3-ethoxy-4-methoxyphenyl)-2-(methylsulfonyl)ethyl)-4,6-dioxo-5,6-dihydro-4H-thieno[3,4-c]pyrrol-1-yl)-2-methoxyacetamide] | 40 to 60% | > 60%
4 | CCOc1cc([C@@H](CS(C)(=O)=O)N2C(=O)c3csc(N(C(=O)C4CC4)C(=O)C4CC4)c3C2=O)ccc1OC [Compound 4] | < 20% | 40 to 60%
5 | CCOc1cc([C@@H](CS(C)(=O)=O)N2C(=O)c3csc(NC(=O)C(C)C(F)(F)F)c3C2=O)ccc1OC (stereo partly drawn) [Compound 5, N-(5-((S)-1-(3-ethoxy-4-methoxyphenyl)-2-(methylsulfonyl)ethyl)-4,6-dioxo-5,6-dihydro-4H-thieno[3,4-c]pyrrol-1-yl)-3,3,3-trifluoro-2-methylpropanamide] | 20 to 40% | > 60%
6 | CCOc1cc([C@@H](CS(C)(=O)=O)N2C(=O)c3csc(NC(=O)C(CC)CC)c3C2=O)ccc1OC [Compound 6] | 40 to 60% | > 60%
7 | CCOc1cc([C@@H](CS(C)(=O)=O)N2C(=O)c3csc(NC(=O)C(F)(F)F)c3C2=O)ccc1OC [Compound 7, (S)—N-(5-(1-(3-ethoxy-4-methoxyphenyl)-2-(methylsulfonyl)ethyl)-4,6-dioxo-5,6-dihydro-4H-thieno[3,4-c]pyrrol-1-yl)-2,2,2-trifluoroacetamide] | < 20% | < 20%
8 | CCOc1cc([C@@H](CS(C)(=O)=O)N2C(=O)c3csc(NC(=O)C4CC4)c3C2=O)ccc1OC [Compound 8, (S)—N-(5-(1-(3-ethoxy-4-methoxyphenyl)-2-(methylsulfonyl)ethyl)-4,6-dioxo-5,6-dihydro-4H-thieno[3,4-c]pyrrol-1-yl)cyclopropanecarboxamide] | < 20% | > 60%
9 | CCOc1cc([C@@H](CS(C)(=O)=O)N2C(=O)c3scc(NC(=O)C(F)(F)F)c3C2=O)ccc1OC [Compound 9, (S)—N-(5-(1-(3-ethoxy-4-methoxyphenyl)-2-(methylsulfonyl)ethyl)-4,6-dioxo-5,6-dihydro-4H-thieno[2,3-c]pyrrol-3-yl)-2,2,2-trifluoroacetamide] | < 20% | 40 to 60%
10 | CCOc1cc([C@@H](CS(C)(=O)=O)N2C(=O)c3scc(NC(=O)COC)c3C2=O)ccc1OC [Compound 10, (S)—N-(5-(1-(3-ethoxy-4-methoxyphenyl)-2-(methylsulfonyl)ethyl)-4,6-dioxo-5,6-dihydro-4H-thieno[2,3-c]pyrrol-3-yl)-2-methoxyacetamide] | < 20% | 40 to 60%
11 | CCOc1cc([C@@H](CS(C)(=O)=O)N2C(=O)c3scc(NC(=O)C4CC4)c3C2=O)ccc1OC [Compound 11, (S)—N-(5-(1-(3-ethoxy-4-methoxyphenyl)-2-(methylsulfonyl)ethyl)-4,6-dioxo-5,6-dihydro-4H-thieno[2,3-c]pyrrol-3-yl)cyclopropanecarboxamide] | < 20% | 20 to 40%
